According to ChEMBL document CHEMBL4028819, “Synthesis, antiplatelet and antithrombotic activities of resveratrol derivatives with NO-donor properties” (Bioorg Med Chem Lett, 2017):
Activity calls are given as the source filed them. No cut-off for these calls is given here.

Tests used:
Platelet [1] = assay: Antiplatelet activity in Wistar rat platelet rich plasma assessed as inhibition of collagen-induced platelet aggregation at 150 uM preincubated for 1 min followed by collagen addition by aggregometric analysis relative to control; format: functional
Platelet [2] = assay: Antiplatelet activity in Wistar rat platelet rich plasma assessed as inhibition of arachidonic acid-induced platelet aggregation at 150 uM preincubated for 1 min followed by arachidonic acid addition by aggregometric analysis relative to control; format: functional
Platelet [3] = assay: Antiplatelet activity in Wistar rat platelet rich plasma assessed as inhibition of ADP-induced platelet aggregation at 150 uM preincubated for 1 min followed by ADP addition by aggregometric analysis relative to control; format: functional
[4] = Induction of NO release assessed as nitrite formation in aqueous buffer at pH 7.4 measured after 1 hr in presence of L-cysteine by Griess assay; design: concentration or dose not given beside the values
Mus musculus [5] = assay: Toxicity in Swiss albino mouse assessed as bleeding time at 100 umol/10 g administered orally 60 mins prior to test by tail transection method; details: in vivo, po, 1 h
Mus musculus [6] = assay: Anti-thrombotic activity in Swiss albino mouse assessed as protection against collagen/epinephrine-induced pulmonary thromboembolism at 100 umol/10 g, po administered as single dose pretreated for 60 mins followed by thrombotic challenge relative to control; format: functional

SMILES	inhibition at 150 µM (Platelet [1])	inhibition at 150 µM (Platelet [2])	inhibition at 150 µM (Platelet [3])	Activity [4]	Time (Mus musculus [5])	Activity (Mus musculus [6])
O=C(N/N=C/c1ccc(Oc2no[n+]([O-])c2S(=O)(=O)c2ccccc2)cc1)c1ccc(O)cc1	72.2%	20.3%	87.1%	25.8%	380 s	80%
O=C(N/N=C/c1ccc(O)cc1)c1cccc(O)c1	19.1%	72.8%	60.3%			
O=C(N/N=C/c1ccc(Oc2no[n+]([O-])c2S(=O)(=O)c2ccccc2)cc1)c1ccccc1O	34.4%	8.5%	74.3%	24.5%		
O=C(N/N=C/c1cccc(Oc2no[n+]([O-])c2S(=O)(=O)c2ccccc2)c1)c1ccccc1O	25.5%	17%	84.2%	25.3%		
CC(=O)Oc1ccccc1C(=O)O [ASPIRIN]	63.4%	28.9%	27.7%		800 s	40%
O=C(N/N=C/c1ccc(O)cc1)c1ccccc1O	35.9%	42.5%	58.2%			
O=S(=O)(c1ccccc1)c1no[n+]([O-])c1S(=O)(=O)c1ccccc1	29.7%	6.7%	89.8%	32.1%		inactive
O=C(N/N=C/c1cccc(O)c1)c1ccccc1O	27.5%	60.8%	56%			
O=C(N/N=C/c1cccc(Oc2no[n+]([O-])c2S(=O)(=O)c2ccccc2)c1)c1cccc(O)c1	44.8%	25%	88.4%	24.1%		
O=C(N/N=C/c1cccc(O)c1)c1ccc(O)cc1	33.1%	74.1%	42.4%			
O=C(N/N=C/c1ccc(O)cc1)c1ccc(O)cc1	44%	79.6%	31.3%		200 s	40%
O=C(N/N=C/c1ccc(Oc2no[n+]([O-])c2S(=O)(=O)c2ccccc2)cc1)c1cccc(O)c1	54.3%	37.3%	82.2%	26.2%		
O=C(N/N=C/c1cccc(Oc2no[n+]([O-])c2S(=O)(=O)c2ccccc2)c1)c1ccc(O)cc1	39.9%	14.3%	91.9%	27.4%		
O=C(N/N=C/c1cccc(O)c1)c1cccc(O)c1	29.1%	48.2%	46.1%			
